Results from patent US5502035A, “N-terminus modified analogs of LHRH” (Tap Holdings Inc., priority 1994, dated 1996).
Non-standard residues stand in square brackets, D forms with d. Residues, ends and D or L forms follow the SMILES beside them. Groups on a side chain read outwards from the residue. *: point of attachment. Shikimoyl = O=C(C1=C[C@@H](O)[C@@H](O)[C@H](O)C1)*; dPhe(4-Cl) = N[C@H](Cc1ccc(Cl)cc1)C(=O)O; d2Nal = N[C@H](Cc1ccc2ccccc2c1)C(=O)O; Lys(iPr) = CC(C)NCCCC[C@H](N)C(=O)O; NMeY = CN[C@@H](Cc1ccc(O)cc1)C(=O)O; dCit = NC(=O)NCCC[C@@H](N)C(=O)O; hArg = N=C(N)NCCCC[C@H](N)C(=O)O; d3Pal = N[C@H](Cc1cccnc1)C(=O)O; Nicotinoyl = O=C(c1cccnc1)*; 2Furoyl = O=C(c1ccco1)*; X1 = O=C([C@@H]1CCCO1)*; X7 = O=C([C@H]1CCOC1)*; X6 = O=C(c1ccoc1)*; azaGly = NNC(=O)O; Sar = CNCC(=O)O

Target: T1, LHRH (Rattus norvegicus, UniProt P30969)
T1 construct: endogenous in cells; host or cells: rat pituitary cells (own knowledge of the cited Haviv 1989 method)
T1 sequence (P30969 1-327): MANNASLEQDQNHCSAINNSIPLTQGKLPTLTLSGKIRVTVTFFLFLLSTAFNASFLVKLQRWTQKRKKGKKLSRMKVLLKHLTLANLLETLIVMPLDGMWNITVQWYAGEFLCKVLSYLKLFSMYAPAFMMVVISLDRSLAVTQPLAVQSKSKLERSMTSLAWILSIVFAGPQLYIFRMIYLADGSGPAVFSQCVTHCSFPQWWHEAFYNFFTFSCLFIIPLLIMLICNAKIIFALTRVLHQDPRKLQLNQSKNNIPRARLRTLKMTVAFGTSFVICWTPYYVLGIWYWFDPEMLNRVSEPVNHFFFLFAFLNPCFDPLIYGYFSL
Assay: in vitro test for LHRH antagonist potency (pA2)
Assay type: cell-based
Settings: negative logarithm of the antagonist concentration required to shift the response curve produced by the agonist leuprolide to two-fold higher concentration
Procedure, shortened: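 Antagonism read against the agonist leuprolide on rat LHRH receptor; value is pA2, the −log of antagonist concentration that doubles the agonist concentration needed for the same response.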

SMILES | Kb [nM]
CC(C)C[C@H](NC(=O)[C@@H](CCCCNC(=O)C1=C[C@@H](O)[C@@H](O)[C@H](O)C1)NC(=O)[C@H](Cc1ccc(O)cc1)N(C)C(=O)[C@H](CO)NC(=O)[C@@H](Cc1cccnc1)NC(=O)[C@@H](Cc1ccc(Cl)cc1)NC(=O)[C@@H](Cc1ccc2ccccc2c1)NC(=O)[C@@H](CCCCNC(=O)c1cccnc1)NC(=O)C1=C[C@@H](O)[C@@H](O)[C@H](O)C1)C(=O)N[C@@H](CCCNC(=N)N)C(=O)N1CCC[C@H]1C(=O)N[C@H](C)C(N)=O [Example 14h, N-Shikimyl-DLys(Nic)-D2Nal-D4ClPhe-D3Pal-Ser-NMeTyr-DLys(Shik)-Leu-Arg-Pro-DAlaNH2] (Shikimoyl-[dK](Nicotinoyl)[d2Nal][dPhe(4-Cl)][d3Pal]S[NMeY][dK](Shikimoyl)LRP[dA]-NH2) | 0.00417
CC(C)C[C@H](NC(=O)[C@@H](CCCNC(N)=O)NC(=O)[C@H](Cc1ccc(O)cc1)N(C)C(=O)[C@H](CO)NC(=O)[C@@H](Cc1cccnc1)NC(=O)[C@@H](Cc1ccc(Cl)cc1)NC(=O)[C@@H](Cc1ccc2ccccc2c1)NC(=O)C1=C[C@@H](O)[C@@H](O)[C@H](O)C1)C(=O)N[C@@H](CCCNC(=N)N)C(=O)N1CCC[C@H]1C(=O)N[C@H](C)C(N)=O [Example 78c, N-Shikimyl-D2Nal-D4ClPhe-D3Pal-Ser-NMeTyr-DCit-Leu-Arg-Pro-DAlaNH2] (Shikimoyl-[d2Nal][dPhe(4-Cl)][d3Pal]S[NMeY][dCit]LRP[dA]-NH2) | 0.0132
CC(C)C[C@H](NC(=O)[C@@H](CCCCNC(=O)C1=C[C@@H](O)[C@@H](O)[C@H](O)C1)NC(=O)[C@H](Cc1ccc(O)cc1)N(C)C(=O)[C@H](CO)NC(=O)[C@@H](Cc1cccnc1)NC(=O)[C@@H](Cc1ccc(Cl)cc1)NC(=O)[C@@H](Cc1ccc2ccccc2c1)NC(=O)CN(C)C(=O)c1cccnc1)C(=O)N[C@@H](CCCNC(=N)N)C(=O)N1CCC[C@H]1C(=O)N[C@H](C)C(N)=O [Example 14a, N-Nicotinyl-Sar-D2Nal-D4ClPhe-D3Pal-Ser-NMeTyr-DLys(Shik)-Leu-Arg-Pro-DAlaNH2] (Nicotinoyl-[Sar][d2Nal][dPhe(4-Cl)][d3Pal]S[NMeY][dK](Shikimoyl)LRP[dA]-NH2) | 0.0132
CC(C)C[C@H](NC(=O)[C@@H](CCCCNC(=O)c1cccnc1)NC(=O)[C@H](Cc1ccc(O)cc1)N(C)C(=O)[C@H](CO)NC(=O)[C@@H](Cc1cccnc1)NC(=O)[C@@H](Cc1ccc(Cl)cc1)NC(=O)[C@@H](Cc1ccc2ccccc2c1)NC(=O)CNC(=O)C1=C[C@@H](O)[C@@H](O)[C@H](O)C1)C(=O)N[C@@H](CCCCNC(C)C)C(=O)N1CCC[C@H]1C(=O)N[C@H](C)C(N)=O [Example 2a, N-Shikimyl-Gly-D2Nal-D4ClPhe-D3Pal-Ser-NMeTyr-DLys(N-epsilon-Nicotinyl) -Leu-Lys(N-epsilon-Isopropyl)-Pro-DAlaNH2] (Shikimoyl-G[d2Nal][dPhe(4-Cl)][d3Pal]S[NMeY][dK](Nicotinoyl)L[Lys(iPr)]P[dA]-NH2) | 0.0282
CC(C)C[C@H](NC(=O)[C@@H](CCCCNC(=O)CNC(=O)C1=C[C@@H](O)[C@@H](O)[C@H](O)C1)NC(=O)[C@H](Cc1ccc(O)cc1)N(C)C(=O)[C@H](CO)NC(=O)[C@@H](Cc1cccnc1)NC(=O)[C@@H](Cc1ccc(Cl)cc1)NC(=O)[C@@H](Cc1ccc2ccccc2c1)NC(=O)CNC(=O)c1cccnc1)C(=O)N[C@@H](CCCCNC(=N)N)C(=O)N1CCC[C@H]1C(=O)N[C@H](C)C(N)=O [Example 25e, N-Nicotinyl-Gly-D2Nal-D4ClPhe-D3Pal-Ser-NMeTyr-DLys(Gly-Shik)-Leu-Harg-Pro-DAlaNH2] (Nicotinoyl-G[d2Nal][dPhe(4-Cl)][d3Pal]S[NMeY][dK]([Gly-Shikimoyl])L[hArg]P[dA]-NH2) | 0.00339
CC(C)C[C@H](NC(=O)[C@@H](CCCCNC(=O)c1cccnc1)NC(=O)[C@H](Cc1ccc(O)cc1)N(C)C(=O)[C@H](CO)NC(=O)[C@@H](Cc1cccnc1)NC(=O)[C@@H](Cc1ccc(Cl)cc1)NC(=O)[C@@H](Cc1ccc2ccccc2c1)NC(=O)[C@H]1CCOC1)C(=O)N[C@@H](CCCCNC(C)C)C(=O)N1CCC[C@H]1C(=O)N[C@H](C)C(N)=O [Example 69, N-(S)-Tetrahydrofur-3-oyl-D2Nal-D4ClPhe-D3Pal-Ser-NMeTyr-DLys(Nic)t-Leu-Lys(Isp)-Pro-DAlaNH2] (X7-[d2Nal][dPhe(4-Cl)][d3Pal]S[NMeY][dK](Nicotinoyl)L[Lys(iPr)]P[dA]-NH2) | 0.02
CC(C)C[C@H](NC(=O)[C@@H](CCCCNC(=O)c1cccnc1)NC(=O)[C@H](Cc1ccc(O)cc1)N(C)C(=O)[C@H](CO)NC(=O)[C@@H](Cc1cccnc1)NC(=O)[C@@H](Cc1ccc(Cl)cc1)NC(=O)[C@@H](Cc1ccc2ccccc2c1)NC(=O)CNC(=O)c1ccoc1)C(=O)N[C@@H](CCCCNC(C)C)C(=O)N1CCC[C@H]1C(=O)N[C@H](C)C(N)=O [Example 2d, N-3Furoyl-Gly-D2Nal-D4ClPhe-D3Pal-Ser-NMeTyr-DLys(N-epsilon-Nicotinyl) -Leu-Lys(N-epsilon-Isopropyl)-Pro-DAlaNH2] (X6-G[d2Nal][dPhe(4-Cl)][d3Pal]S[NMeY][dK](Nicotinoyl)L[Lys(iPr)]P[dA]-NH2) | 0.0126
CC(C)C[C@H](NC(=O)[C@@H](CCCCNC(=O)c1cccnc1)NC(=O)[C@H](Cc1ccc(O)cc1)N(C)C(=O)[C@H](CO)NC(=O)[C@@H](Cc1cccnc1)NC(=O)[C@@H](Cc1ccc(Cl)cc1)NC(=O)[C@@H](Cc1ccc2ccccc2c1)NC(=O)CNC(=O)c1ccco1)C(=O)N[C@@H](CCCCNC(C)C)C(=O)N1CCC[C@H]1C(=O)N[C@H](C)C(N)=O [Example 2c, N-2-Furoyl-Gly-D2Nal-D4ClPhe-D3Pal-Ser-NMeTyr-DLys(N-epsilon-Nicotinyl) -Leu-Lys(N-epsilon-Isopropyl)-Pro-DAlaNH2] (2Furoyl-G[d2Nal][dPhe(4-Cl)][d3Pal]S[NMeY][dK](Nicotinoyl)L[Lys(iPr)]P[dA]-NH2) | 0.00794
CC(C)C[C@H](NC(=O)[C@@H](CCCNC(N)=O)NC(=O)[C@H](Cc1ccc(O)cc1)N(C)C(=O)[C@H](CO)NC(=O)[C@@H](Cc1cccnc1)NC(=O)[C@@H](Cc1ccc(Cl)cc1)NC(=O)[C@@H](Cc1ccc2ccccc2c1)NC(=O)c1cccnc1)C(=O)N[C@@H](CCCNC(=N)N)C(=O)N1CCC[C@H]1C(=O)N[C@H](C)C(N)=O [Example 78g, N-Nicotinyl-D2Nal-D4ClPhe-D3Pal-Ser-NMeTyr-DCit-Leu-Arg-Pro-DAlaNH2] (Nicotinoyl-[d2Nal][dPhe(4-Cl)][d3Pal]S[NMeY][dCit]LRP[dA]-NH2) | 0.00708
CC(C)C[C@H](NC(=O)[C@@H](CCCCNC(=O)NNC(=O)c1ccco1)NC(=O)[C@H](Cc1ccc(O)cc1)N(C)C(=O)[C@H](CO)NC(=O)[C@@H](Cc1cccnc1)NC(=O)[C@@H](Cc1ccc(Cl)cc1)NC(=O)[C@@H](Cc1ccc2ccccc2c1)NC(=O)C1=C[C@@H](O)[C@@H](O)[C@H](O)C1)C(=O)N[C@@H](CCCCNC(C)C)C(=O)N1CCC[C@H]1C(=O)N[C@H](C)C(N)=O [Example 30c, N-Shik-D2Nal-D4ClPhe-D3Pal-Ser-NMeTyr-DLys(Azagly-2Fur)-Leu-Lys(Isp)-Pro-DAlaNH2] (Shikimoyl-[d2Nal][dPhe(4-Cl)][d3Pal]S[NMeY][dK]([azaGly-2Furoyl])L[Lys(iPr)]P[dA]-NH2) | 0.038
CC(C)C[C@H](NC(=O)[C@@H](CCCCNC(=O)C1=C[C@@H](O)[C@@H](O)[C@H](O)C1)NC(=O)[C@H](Cc1ccc(O)cc1)N(C)C(=O)[C@H](CO)NC(=O)[C@@H](Cc1cccnc1)NC(=O)[C@@H](Cc1ccc(Cl)cc1)NC(=O)[C@@H](Cc1ccc2ccccc2c1)NC(=O)CN(C)C(=O)C1=C[C@@H](O)[C@@H](O)[C@H](O)C1)C(=O)N[C@@H](CCCNC(=N)N)C(=O)N1CCC[C@H]1C(=O)N[C@H](C)C(N)=O [Example 14b, N-Shikimyl-Sar-D2Nal-D4ClPhe-D3Pal-Ser-NMeTyr-DLys(Shik)-Leu-Arg-Pro-DAlaNH2] (Shikimoyl-[Sar][d2Nal][dPhe(4-Cl)][d3Pal]S[NMeY][dK](Shikimoyl)LRP[dA]-NH2) | 0.105
CC(C)C[C@H](NC(=O)[C@@H](CCCCNC(=O)c1cccnc1)NC(=O)[C@H](Cc1ccc(O)cc1)N(C)C(=O)[C@H](CO)NC(=O)[C@@H](Cc1cccnc1)NC(=O)[C@@H](Cc1ccc(Cl)cc1)NC(=O)[C@@H](C)NC(=O)CNC(=O)[C@@H]1CCCO1)C(=O)N[C@@H](CCCCNC(C)C)C(=O)N1CCC[C@H]1C(=O)N[C@H](C)C(N)=O [Example 100, N (S)-2-Tetrahydrofuroyl-Gly-DAla-D4ClPhe-D3Pal-Ser-NMeTyr-DLys(Nic)-Leu-Lys(Isp)-Pro-DAlaNH2] (X1-G[dA][dPhe(4-Cl)][d3Pal]S[NMeY][dK](Nicotinoyl)L[Lys(iPr)]P[dA]-NH2) | 21.9
CC(C)C[C@H](NC(=O)[C@@H](CCCCNC(=O)C1=C[C@@H](O)[C@@H](O)[C@H](O)C1)NC(=O)[C@H](Cc1ccc(O)cc1)N(C)C(=O)[C@H](CO)NC(=O)[C@@H](Cc1cccnc1)NC(=O)[C@@H](Cc1ccc(Cl)cc1)NC(=O)[C@@H](Cc1ccc2ccccc2c1)NC(=O)[C@@H](CO)NC(=O)c1cccnc1)C(=O)N[C@@H](CCCCNC(=N)N)C(=O)N1CCC[C@H]1C(=O)N[C@H](C)C(N)=O [Example 25b, N-Nicotinyl-DSer-D2Nal-D4ClPhe-D3Pal-Ser-NMeTyr-DLys(Shikimyl)-Leu-Harg-Pro-DAlaNH2] (Nicotinoyl-[dS][d2Nal][dPhe(4-Cl)][d3Pal]S[NMeY][dK](Shikimoyl)L[hArg]P[dA]-NH2) | 0.00794
